From patent US8168233B2 (Amylin Pharmaceuticals, Inc., priority 2002, dated 2012)
Where no end group is shown, it is not given here.

Tests used:
[1] = Amylin activity in vivo in treated test animals (hyperlactemia followed by hyperglycemia); settings: e.g., provoking marked hyperlactemia followed by hyperglycemia
[2] = tested on: pancreatic enzyme secretion; settings: rat model, doses resulting in physiological plasma concentrations; cited from earlier work
[3] = human, in vivo; cited from earlier work
[4] = tested on: caerulein-induced pancreatitis in ICR(CD-1) male mice; assay: Effect of amylin on caerulein-induced pancreatitis (plasma amylase); type: in vivo; settings: amylin at levels as low as 0.01 μg injected at t=−5 min; plasma at 9 hours after first caerulein injection
Experimental: Male ICR mice, weighing approximately 20 g, were fasted overnight and throughout the experiment, but were allowed access to water ad libitum. […] At t=0, 0.01 μg/kg of caerulein in all but the normal group of mice. The dosing regimen for caerulein was repeated 3 times at 2 hour intervals. At t=9 hours, i.e., 9 hours after the first caerulein injection, the mice were bleed (orbital sinus) and the plasma assayed for amylase (Amylase 3 assay kit, Sigma Diagnostics Catalog #577-3, Sigma Diagnostics, St. Louis, Mo., USA).

[5] = tested on: rat pancreas; assay: Inhibition of CCK-8 stimulated lipase and amylase secretion in rat pancreas (pancreatic juice collection in anesthetized rats); type: in vivo; settings: for Amylase, % from CCK-8 stimulated / Lipase, % from CCK-8 stimulated / Pancreatic flow, % from CCK-8 stimulated: decrease versus CCK-8 alone
Experimental: Tracheotomy and cannulation of the right femoral artery were performed and body temperature was controlled with a thermoregulator (Model 73A, YSI, Yellow Springs, Ohio, USA) that switched a heated operating table. The femoral arterial line, used for blood sampling, was perfused with heparinized saline (2 u/ml) and connected to a pressure transducer for blood pressure recording (Spectramed P23XL transducer, Model 13-4615-58 amplifier, Gould, Cleveland, Ohio, USA). Through a midline incision two polyethylene cannulae were inserted into the common bile-pancreatic duct at a point about 0.5 cm above where the duct enters the pancreas. The first cannula was inserted up toward the liver to collect bile. The other end of this cannula was placed into the duodenum through a small incision in the duodenum. Thus, bile flowed directly from the liver to the small intestine, being shunted away from the pancreas completely.
A second polyethylene cannula was inserted into the common bile-pancreatic duct near the first but in the opposite direction to collect pancreatic juice. The other end of the pancreatic duct was tied off with a suture just at the point where it enters the duodenum, forcing any pancreatic juice produced to flow through the second cannula for collection. Pancreatic juice was collected every 15 min from −30 to 90 min. […] The volume of juice was measured and aliquots taken for enzymes determination. Amylase and lipase, which are secreted in pancreatic juice in an active form, were tested using diagnostic kits (Lipase-PS assay kit, Sigma Diagnostics Catalog #805-A and Amylase 3 assay kit, Sigma Diagnostics Catalog #577-3, Sigma Diagnostics, St. Louis, Mo., USA). To perform both assays, pancreatic juice was diluted with saline in proportion 1:2000. Activity of enzymes was expressed in units per 15 min (activity in pancreatic juice collected every 15 min).

[6] = tested on: soleus muscle; settings: read-out: EC50 in the soleus muscle assay; typical range of amylin preparations; […] insulin
Experimental: The tendons of the muscles are ligated before attachment to stainless steel clips. […] Flasks are sealed and gassed continuously with O2 and CO2 in the ratio 19:1 (v/v). After pre-incubation of muscles in this medium for 30 min at 37° C. in an oscillating water bath, the muscles strips are transferred to similar vials containing identical medium (except pyruvate) with added [U-^14C] glucose (0.5 μCi/ml) and insulin (100 μU/ml). […] At the end of the incubation period, muscles are blotted and rapidly frozen in liquid N2. The concentration of lactate in the incubation medium can be determined spectrophotometrically and [U-^14C]glucose incorporation in glycogen measured.
Male Harlan Sprague-Dawley rats of approximately 200 g mass were used in order to maintain mass of the split soleus muscle less than 40 mg. The animals were fasted for 4 hours prior to sacrifice by decapitation. The skin was stripped from the lower limb which was then pinned out on corkboard. The tendo achilles was cut just above os calcis and m. gastrocnemius reflected out from the posterior aspect of the tibia. […]
^14C-glycogen determination was performed in a 7 mL scintillation vial. […] The remaining glycogen was redissolved in 1 mL water and 4 mL scintillation fluid and counted for ^14C. […]

[7] = Amylin 1 μg s.c. alone, no CCK-8
[8] = Amylin 10 μg s.c. alone, no CCK-8
[9] = CCK-8 1 μg and Amylin 0.1 μg s.c.
[10] = CCK-8 1 μg and Amylin 0.3 μg s.c.
[11] = CCK-8 1 μg and Amylin 1.0 μg s.c.
[12] = CCK-8 1 μg and Amylin 10.0 μg s.c.
[13] = s.c. amylin with CCK-8 1 μg, dose-dependent
[14] = ±0.09 log units, first ED50 sentence of b123
[15] = ±0.09 log units, second ED50 sentence of b123

With “des-^1Lys-h-amylin (CNTATCATQRLANFLVHSSNNFGAILSSTNVGSNTY; ends and bridges not checked; cysteine pairing not given here; UniProt P10997 35-70, looked up, fragment)” the “amylin activity in vivo” value [1] was “show amylin activity in vivo”.

For “Amylin: rat amylin (AR905-80) in Example II; amylin (AC128, Amylin Pharmaceuticals, Inc.) in Example I; 37 amino acid peptide hormone (KCNTATCATQRLANFLVHSSNNFGAILSSTNVGSNTY)”, the “effect on basal pancreatic enzyme secretion” value [2] is given as “no effect”, the tolerability [3] is given as “well tolerated” and the “reduction of elevated plasma amylase produced by caerulein” value [4] is given as “effectively reduce the elevated levels of plasma amylase”. The Amylase [5, 7] was 80.21 ± 35.71 U/45 min, the Lipase [5, 7] was 149.51 ± 86.79 U/45 min and the Pancreatic flow [5, 7] was 30 ± 6 μl/45 min. It also gave an Amylase [5, 8] of 61.95 ± 24.51 U/45 min, a Lipase [5, 8] of 64.67 ± 21.59 U/45 min and a Pancreatic flow [5, 8] of 13 ± 4 μl/45 min. For the same compound, the Amylase [5, 9] was 340.98 ± 40.91 U/45 min, the Lipase [5, 9] was 472.82 ± 58.67 U/45 min and the Pancreatic flow [5, 9] was 78 ± 8 μl/45 min. For the same compound, the “Amylase, % from CCK-8 stimulated” value [5, 9] was 25.83%, the “Lipase, % from CCK-8 stimulated” value [5, 9] was 34.65% and the “Pancreatic flow, % from CCK-8 stimulated” value [5, 9] was 21.21%. For the same compound, the Amylase [5, 10] was 271.73 ± 48.38 U/45 min, the Lipase [5, 10] was 309.30 ± 74.31 U/45 min and the Pancreatic flow [5, 10] was 67 ± 6 μl/45 min. The “Amylase, % from CCK-8 stimulated” value [5, 10] was 40.90%, the “Lipase, % from CCK-8 stimulated” value [5, 10] was 57.25% and the “Pancreatic flow, % from CCK-8 stimulated” value [5, 10] was 32.32%. The Amylase [5, 11] was 193.93 ± 34.40 U/45 min, the Lipase [5, 11] was 232.41 ± 58.01 U/45 min and the Pancreatic flow [5, 11] was 58 ± 12 μl/45 min. For the same compound, the “Amylase, % from CCK-8 stimulated” value [5, 11] was 57.32%, the “Lipase, % from CCK-8 stimulated” value [5, 11] was 67.87% and the “Pancreatic flow, % from CCK-8 stimulated” value [5, 11] was 41.41%. For the same compound, the Amylase [5, 12] was 353.68 ± 78.85 U/45 min, the Lipase [5, 12] was 370.65 ± 85.67 U/45 min and the Pancreatic flow [5, 12] was 90 ± 13 μl/45 min. The “Amylase, % from CCK-8 stimulated” value [5, 12] was 23.07%, the “Lipase, % from CCK-8 stimulated” value [5, 12] was 48.77% and the “Pancreatic flow, % from CCK-8 stimulated” value [5, 12] was 9.09%. For the same compound, the “inhibition of cholecystokinin stimulated pancreatic amylase activity (maximum)” value [5, 13] was “up to 67.9%”, the “inhibition of secretion of cholecystokinin stimulated pancreatic lipase (maximum)” value [5, 13] was “up to 57.3%” and the “ED50 for suppression of pancreatic amylase activity” value [5, 14] was 129 pmol/kg. For the same compound, the “ED50 for suppression of pancreatic lipase activity” value [5, 14] was 129 pmol/kg, the “ED50 for suppression of CCK-8 stimulated pancreatic amylase activity” value [5, 15] was 123 pmol/kg and the “ED50 for suppression of CCK-8 stimulated pancreatic lipase activity” value [5, 15] was 123 pmol/kg.

Work on “cholecystokinin octapeptide [CCK-8, reference compound]” yielded an Amylase ([5]; CCK-8 1 μg s.c. alone) of 459.76 ± 52.49 U/45 min, a Lipase ([5]; CCK-8 1 μg s.c. alone) of 723.56 ± 100.56 U/45 min and a Pancreatic flow ([5]; CCK-8 1 μg s.c. alone) of 99 ± 13 μl/45 min.

For des-^1Lys^18Arg^25,28Pro-h-amylin, the “amylin activity in vivo” value [1] was “show amylin activity in vivo”.

With “^28Pro-h-amylin (KCNTATCATQRLANFLVHSSNNFGAILPSTNVGSNTY)” the “amylin activity in vivo” value [1] was “show amylin activity in vivo”.

With `CC[C@H](C)[C@H](NC(=O)[C@H](C)NC(=O)CNC(=O)[C@H](Cc1ccccc1)NC(=O)[C@H](CC(N)=O)NC(=O)[C@H](CC(N)=O)NC(=O)[C@H](CO)NC(=O)[C@H](CO)NC(=O)[C@H](Cc1c[nH]cn1)NC(=O)[C@@H](NC(=O)[C@H](CC(C)C)NC(=O)[C@H](Cc1ccccc1)NC(=O)[C@H](CC(N)=O)NC(=O)[C@H](C)NC(=O)[C@H](CC(C)C)NC(=O)[C@H](CCCNC(=N)N)NC(=O)[C@H](CCC(N)=O)NC(=O)[C@@H](NC(=O)[C@H](C)NC(=O)[C@@H]1CSSC[C@H](NC(=O)[C@@H](N)CCCCN)C(=O)N[C@@H](CC(N)=O)C(=O)N[C@@H]([C@@H](C)O)C(=O)N[C@@H](C)C(=O)N[C@@H]([C@@H](C)O)C(=O)N1)[C@@H](C)O)C(C)C)C(=O)N[C@@H](CC(C)C)C(=O)N[C@@H](CO)C(=O)N[C@@H](CO)C(=O)N[C@H](C(=O)N[C@@H](CC(N)=O)C(=O)N[C@H](C(=O)NCC(=O)N[C@@H](CO)C(=O)N[C@@H](CC(N)=O)C(=O)N[C@H](C(=O)N[C@@H](Cc1ccc(O)cc1)C(N)=O)[C@@H](C)O)C(C)C)[C@@H](C)O` [human amylin] the EC50 [6] was 1 to 10 nM.
